Assay results reported in article PMC12040169 (PLOS Biology, 2025).

Experiment: in vitro
Details: human, hela cells, % viability
In the case of c1ccc(CN2CCN(c3ccc(Nc4cc(-c5ccncc5)ncn4)cc3)CC2)cc1 [CBK037727], the viability at 28.5 h, 10 µM is reported as 92.3%.
c1ccc(Oc2ccccc2-c2cc(N3CCC(N4CCCCC4)CC3)ncn2)cc1 [CBK037728] gave a viability at 28.5 h, 10 µM of 88.7%.
In the case of FC(F)(F)Oc1ccc(-c2cc(NCCc3ccccn3)ncn2)cc1 [CBK037732], the viability at 28.5 h, 10 µM is reported as 98.2%.
Compound CN(C)c1cccc(-c2ccc(Nc3ccc(N4CCOCC4)cc3)nc2)c1 [CBK037735] has a viability at 28.5 h, 10 µM of 92.2%.
Work on Cc1ccc(-c2ccc(Nc3ccc(Oc4ccccc4)cc3)nc2)cc1C [CBK037740] yielded a viability at 28.5 h, 10 µM of 92.7%.
For COc1cncc(-c2cccc(NCC(c3cccnc3)N(C)C)n2)c1 (stereo not drawn) [CBK037741], the viability at 28.5 h, 10 µM was 93.6%.
Work on c1cncc(Nc2cccc(-c3ccco3)n2)c1 [CBK037742] yielded a viability at 28.5 h, 10 µM of 100%.
With COc1ccc(Nc2ccc(-c3ccc4ccccc4c3)cn2)cn1 [CBK037744] the viability at 28.5 h, 10 µM was 88.6%.
CCCNc1cc(-c2cccc(Cl)c2)nc2ccnn12 [CBK037747] showed a viability at 28.5 h, 10 µM of 112%.
COc1ccc(-c2cc(N3CCC(N4CCCCC4)CC3)ncn2)cc1OC [CBK037752] gave a viability at 28.5 h, 10 µM of 90%.
In the case of COc1cc(C)c(Nc2cc(-c3cccnc3)ncn2)cc1OC [CBK037754], the viability at 28.5 h, 10 µM is reported as 102%.
With O=C(NCCO)c1cccc(-c2cncc(N3CCCCC3CCO)n2)c1 (stereo not drawn) [CBK037759] the viability at 28.5 h, 10 µM was 104%.
For CCN(CCO)c1ccc(Nc2cc(-c3ccc(C#N)cc3)ncn2)cc1 [CBK037764], the viability at 28.5 h, 10 µM was 87.9%.
In the case of c1cc(N2CCN(CCN3CCCC3)CC2)ncc1-c1ccc2c(c1)OCO2 [CBK037769], the viability at 28.5 h, 10 µM is reported as 95.1%.
Compound COc1cncc(-c2ccc(Nc3ccc(OC)nc3)nc2)c1 [CBK037773] has a viability at 28.5 h, 10 µM of 103%.
With CCCC/C=C/c1ccc(Nc2ccc3c(c2)OCCO3)nc1 [CBK037774] the viability at 28.5 h, 10 µM was 93.3%.
Work on COc1ccc(C(=O)OC(C)(C)C)c(-c2cncc(N3CCCCC3CCO)n2)c1 (stereo not drawn) [CBK037786] yielded a viability at 28.5 h, 10 µM of 104%.
O=C(O)CCc1ccc(-c2ccc(N3CCN(CCN4CCCC4)CC3)nc2)cc1 [CBK037796] gave a viability at 28.5 h, 10 µM of 103%.
With Cc1ccc(-c2cccc(N3CCN(CCN4CCCC4)CC3)n2)cc1C [CBK037799] the viability at 28.5 h, 10 µM was 113%.
In the case of c1ccc(-c2ccc(Nc3ccc4c(c3)OCCO4)nc2)cc1 [CBK037802], the viability at 28.5 h, 10 µM is reported as 98.3%.
Compound N#Cc1cccc(Nc2cncc(-c3cccc(C(=O)NCCO)c3)n2)c1 [CBK037810] has a viability at 28.5 h, 10 µM of 97.1%.
With N#Cc1ccc(-c2cc(N3CCN(C(=O)c4ccco4)CC3)ncn2)cc1 [CBK037813] the viability at 28.5 h, 10 µM was 98.2%.
For c1ccc2c(-c3cc(Nc4ccc5[nH]ccc5c4)ncn3)cccc2c1 [CBK037815], the viability at 28.5 h, 10 µM was 42.9%.
O=C(c1ccco1)N1CCN(c2cc(-c3ccccc3Oc3ccccc3)ncn2)CC1 [CBK037817] showed a viability at 28.5 h, 10 µM of 96.8%.
For CC(=O)Nc1cccc(-c2cncc(NCCc3c[nH]c4ccccc34)n2)c1 [CBK037820], the viability at 28.5 h, 10 µM was 97.9%.
In the case of O=C(O)CCc1ccc(-c2cc(N3CCN(c4ccccn4)CC3)ncn2)cc1 [CBK037821], the viability at 28.5 h, 10 µM is reported as 105%.
For Nc1ccc(C(=O)Nc2ccc(Nc3cc(-c4cccnc4)ncn3)cc2)cc1 [CBK037823], the viability at 28.5 h, 10 µM was 94.6%.
For CN(C)c1cccc(-c2cc(N3CCN(c4ccccn4)CC3)ncn2)c1 [CBK037825], the viability at 28.5 h, 10 µM was 104%.
With CCCC/C=C/c1cncc(NC2CCC(O)CC2)n1 (stereo not drawn) [CBK037840] the viability at 28.5 h, 10 µM was 105%.
O=C(c1ccco1)N1CCN(c2cc(-c3ccc(OCc4ccccc4)cc3)ncn2)CC1 [CBK037844] showed a viability at 28.5 h, 10 µM of 97.6%.
With O=C(O)c1cccc(-c2cncc(NCCCN3CCOCC3)n2)c1 [CBK037850] the viability at 28.5 h, 10 µM was 104%.
Work on OCc1ccccc1-c1cncc(NCCc2c[nH]c3ccccc23)n1 [CBK037852] yielded a viability at 28.5 h, 10 µM of 93.2%.
Work on CC(C)(CO)CNc1cncc(-c2cccc(Cl)c2)n1 [CBK037862] yielded a viability at 28.5 h, 10 µM of 102%.
Compound c1ccc(CNc2nc(-c3ccsc3)cn3ccnc23)cc1 [CBK037868] has a viability at 28.5 h, 10 µM of 88%.
For CN(C)CCN(C)c1nc(-c2ccc(C(=O)O)cc2)cn2ccnc12 [CBK037880], the viability at 28.5 h, 10 µM was 96.7%.
For CC(C)(CO)CNc1cncc(-c2cccnc2)n1 [CBK037881], the viability at 28.5 h, 10 µM was 89.8%.
In the case of CCC(CO)Nc1cncc(-c2cc(OC)c(OC)c(OC)c2)n1 (stereo not drawn) [CBK037882], the viability at 28.5 h, 10 µM is reported as 98.9%.
NC1CCC(Nc2cncc(-c3ccc(F)c(Cl)c3)n2)CC1 (stereo not drawn) [CBK037893] showed a viability at 28.5 h, 10 µM of 99.6%.
CN(C)c1ccc(-c2cn3ccnc3c(NC3CC3)n2)cc1 [CBK037894] gave a viability at 28.5 h, 10 µM of 103%.
Work on COc1cc(-c2cn3ccnc3c(N3CCN(c4ccncc4)CC3)n2)cc(OC)c1OC [CBK037896] yielded a viability at 28.5 h, 10 µM of 86.6%.
In the case of c1ccc2cc(-c3cncc(NCc4ccncc4)n3)ccc2c1 [CBK037899], the viability at 28.5 h, 10 µM is reported as 92.2%.
For COc1cncc(-c2cncc(NCCCN3CCOCC3)n2)c1 [CBK037902], the viability at 28.5 h, 10 µM was 84%.
Work on OCCC1CCCCN1c1cncc(-c2cccc(Cl)c2)n1 (stereo not drawn) [CBK037906] yielded a viability at 28.5 h, 10 µM of 108%.
With c1cnc2c(-c3cn4ccnc4c(NC4CC4)n3)cccc2c1 [CBK037911] the viability at 28.5 h, 10 µM was 111%.
O=C(O)c1cccc(-c2cncc(NCc3ccncc3)n2)c1 [CBK037915] gave a viability at 28.5 h, 10 µM of 106%.
For CCCC/C=C/c1cncc(N2CCN(C(=O)c3ccco3)CC2)n1 [CBK037918], the viability at 28.5 h, 10 µM was 91.3%.
With COc1ccc(C(C)C)cc1-c1cncc(N2CCN(c3ccccc3C#N)CC2)n1 [CBK037927] the viability at 28.5 h, 10 µM was 98.8%.
In the case of OCCN1CCN(c2nc(C3CCOC3)cn3ccnc23)CC1 (stereo not drawn) [CBK037931], the viability at 28.5 h, 10 µM is reported as 98.5%.
Compound CC(C)c1ccc(-c2cncc(NCCCO)n2)cc1 [CBK037937] has a viability at 28.5 h, 10 µM of 106%.
COc1ncc(-c2cncc(NCCO)n2)c(OC)n1 [CBK037939] showed a viability at 28.5 h, 10 µM of 106%.
Work on OCc1cccc(-c2cncc(NCCc3cccnc3)n2)c1 [CBK037946] yielded a viability at 28.5 h, 10 µM of 98.8%.
Work on CN(C)CCN(C)c1nc(-c2cc(C(F)(F)F)cc(C(F)(F)F)c2)cn2ccnc12 [CBK037971] yielded a viability at 28.5 h, 10 µM of 104%.
In the case of CC(=O)Nc1cccc(-c2nccnc2NCc2ccc3c(c2)OCO3)c1 [CBK037972], the viability at 28.5 h, 10 µM is reported as 97.1%.
In the case of COc1cc(-c2cncc(N3CCC(C(=O)O)CC3)n2)cc(OC)c1OC [CBK037973], the viability at 28.5 h, 10 µM is reported as 100%.
CC(=O)c1ccc(-c2nccnc2NCC2CC2)s1 [CBK037975] gave a viability at 28.5 h, 10 µM of 104%.
For c1cc(CCNc2nccn3ccnc23)ccn1 [CBK037976], the viability at 28.5 h, 10 µM was 99.2%.
In the case of COc1ccccc1-c1cn2ccnc2c(NCCc2ccccn2)n1 [CBK037980], the viability at 28.5 h, 10 µM is reported as 107%.
Compound COc1ccc(N2CCN(c3cncc(-c4cc(OC)c(OC)c(OC)c4)n3)CC2)cc1OC [CBK037988] has a viability at 28.5 h, 10 µM of 99.9%.
CN(C)C(=O)COc1cccc(Nc2nc(Br)cn3ccnc23)c1 [CBK037989] showed a viability at 28.5 h, 10 µM of 92.8%.
In the case of COc1cc(-c2nccnc2N2CCCN(C)CC2)cc(OC)c1OC [CBK037994], the viability at 28.5 h, 10 µM is reported as 97.8%.
In the case of O=C(O)c1ccc(CNC(=O)c2cnc(-c3ccc(F)cc3)c(-c3ccc(O)cc3)c2)cc1 [CBK037996], the viability at 28.5 h, 10 µM is reported as 101%.
For CC(=O)Nc1cccc(-c2nccnc2NCC(c2cccnc2)N(C)C)c1 (stereo not drawn) [CBK037998], the viability at 28.5 h, 10 µM was 95.6%.
For CCNc1nc(-c2ccc3[nH]ccc3c2)cn2ccnc12 [CBK038002], the viability at 28.5 h, 10 µM was 99.5%.
OCc1ccc(-c2nccnc2NCCc2c[nH]c3ccccc23)cc1 [CBK038004] gave a viability at 28.5 h, 10 µM of 98.8%.
For CN(C)CCN(C)c1nc(-c2ccc(F)c(Cl)c2)cn2ccnc12 [CBK038007], the viability at 28.5 h, 10 µM was 95.7%.
Work on COCCNc1nccnc1-c1ccccc1CO [CBK038010] yielded a viability at 28.5 h, 10 µM of 108%.
In the case of COc1ccc(-c2nccnc2N2CCN(C)CC2)cc1 [CBK038012], the viability at 28.5 h, 10 µM is reported as 113%.
COc1cc(-c2nccnc2NCCc2c[nH]c3ccccc23)cc(OC)c1OC [CBK038015] showed a viability at 28.5 h, 10 µM of 102%.
For Nc1cccc(-c2cc(C(=O)NCCc3cccnc3)cnc2-c2ccc(F)cc2)c1 [CBK038016], the viability at 28.5 h, 10 µM was 102%.
Compound FC(F)(F)Oc1cccc(-c2cn3ccnc3c(NCCc3ccccn3)n2)c1 [CBK038017] has a viability at 28.5 h, 10 µM of 96.7%.
Work on O=C(O)CCc1ccc(-c2cn3ccnc3c(NCc3ccncc3)n2)cc1 [CBK038022] yielded a viability at 28.5 h, 10 µM of 90.6%.
COc1cc(-c2nccnc2N[C@@H](CO)C(C)C)cc(OC)c1OC [CBK038023] gave a viability at 28.5 h, 10 µM of 111%.
Brc1cn2ccnc2c(NCc2ccccn2)n1 [CBK038024] showed a viability at 28.5 h, 10 µM of 88.7%.
With COc1ccc(-c2cc(C(=O)Nc3ccc(O)cc3)cnc2-c2ccc(F)cc2)cc1 [CBK038026] the viability at 28.5 h, 10 µM was 95.5%.
COc1cc(C(O)CNC(=O)c2cnc(-c3ccc(F)cc3)c(-c3cccc(N)c3)c2)ccc1O (stereo not drawn) [CBK038032] showed a viability at 28.5 h, 10 µM of 98.8%.
CN(C)C(CNc1nccnc1-c1ccc(CO)cc1)c1cccnc1 (stereo not drawn) [CBK038038] showed a viability at 28.5 h, 10 µM of 87.6%.
Compound Clc1ccccc1-c1cn2ccnc2c(NCc2cccnc2)n1 [CBK038039] has a viability at 28.5 h, 10 µM of 94.5%.
Compound CCN(CCO)c1ccc(Nc2nc(-c3ccc(F)c(Cl)c3)cn3ccnc23)cc1 [CBK038042] has a viability at 28.5 h, 10 µM of 100%.
O=C(O)CCc1ccc(-c2cn3ccnc3c(Nc3ccc(Br)cc3)n2)cc1 [CBK038058] showed a viability at 28.5 h, 10 µM of 113%.
With COc1cc(CNc2nc(Br)cn3ccnc23)cc(OC)c1OC [CBK038060] the viability at 28.5 h, 10 µM was 110%.
COc1cc(Nc2nc(-c3ccc4[nH]ccc4c3)cn3ccnc23)cc(OC)c1OC [CBK038069] gave a viability at 28.5 h, 10 µM of 95.5%.
For CC(C)[C@H](CO)Nc1nc(-c2ccc3c(c2)OCO3)cn2ccnc12 [CBK038071], the viability at 28.5 h, 10 µM was 101%.
With CCCC/C=C/c1nccnc1NCc1ccc(C(F)(F)F)cc1 [CBK038077] the viability at 28.5 h, 10 µM was 94.4%.
Cc1cccc(CNc2nccnc2-c2cccc(N)c2)c1 [CBK038080] showed a viability at 28.5 h, 10 µM of 92.4%.
For OCCN1CCN(c2nccnc2-c2ccncc2)CC1 [CBK038084], the viability at 28.5 h, 10 µM was 89.2%.
Compound CCCC/C=C/c1cn2ccnc2c(Nc2ccc(OC)nc2)n1 [CBK038089] has a viability at 28.5 h, 10 µM of 100%.
In the case of CCCC/C=C/c1nccnc1NCc1cccs1 [CBK038090], the viability at 28.5 h, 10 µM is reported as 101%.
For OCCCNc1nccnc1-c1ccccc1Cl [CBK038092], the viability at 28.5 h, 10 µM was 81.6%.
Compound COc1ccc([C@@]23CC[C@H](NC(=O)c4[nH]cnc4C)C[C@@H]2N(C)CC3)cc1OC [CBK038097] has a viability at 28.5 h, 10 µM of 118%.
For O=S(=O)(Nc1cc(F)cc(C(F)(F)F)c1)c1cc2c(N3CCNCC3)nccc2s1 [CBK038102C], the viability at 28.5 h, 10 µM was 95.5%.
